The source of these data is US20100285959A1, “HERBICIDAL MIXTURES” (priority 2006, published 2010).

Data set [1] deals with flint corn (ZEAMI). Put plainly: Test 11 field trial, preemergence. Type of data set: in vivo, Zea mays L. ssp. indurata. To be noted: atrazine 1500 or metolachlor 2500 g a.i./ha alone. Set-up: scale not given here. The text has this:
(§1) Corn seeds (hybrid ‘Pioneer 3041’) were planted in mid spring season, 5 cm deep in a clay soil having 2.6% organic matter and a pH of 5.6. Plots were 8 m long by 1.5 m wide with rows spaced 80 cm apart. Seeds were spaced 15 cm apart within the rows. The field was managed using conventional tillage practices. […] Treatments consisted of Compound 2 or
(§2) Goosegrass was not evaluated 16 or 91 days after application.

For data set [2], the system named is Ipomoea grandiflora (IPOGF). Kind of data set: Test 11 field trial, preemergence. Type of data set: in vivo.
Text: as §1, §2

Data set [3] relates to alexandergrass (BRAPL). Put plainly: Test 11 field trial, preemergence. To be noted: atrazine 1500 or metolachlor 2500 g a.i./ha alone. Type of data set: in vivo, Brachiaria plantaginea. Set-up: scale not given here.
Text: as §1, §2

The test system of data set [4] is Surinam grass (BRADC). Kind of data set: Test 11 field trial, preemergence. The arrangement: scale not given here. To be noted: atrazine 1500 or metolachlor 2500 g a.i./ha alone. Type of data set: in vivo, Brachiaria decumbens.
Text: as §1, §2

Data set [5] has as its system common blackjack (BIDPI). Kind of data set: Test 11 field trial, preemergence. Type of data set: in vivo, Bidens pilosa. The arrangement: scale not given here. The note with it: atrazine 1500 or metolachlor 2500 g a.i./ha alone.
Text: as §1, §2

Data set [6] deals with Brazilian crabgrass (DIGHO). Put plainly: Test 11 field trial, preemergence. To be noted: atrazine 1500 or metolachlor 2500 g a.i./ha alone. Type of data set: in vivo, Digitaria horizontalis. Set-up: scale not given here.
Text: as §1, §2

The subject of data set [7] is goosegrass (ELEIN). Kind of data set: Test 11 field trial, preemergence. Type of data set: in vivo, Eleusine indica.
Text: as §1, §2

The subject of data set [8] is southern sandbur (CCHEC). Put plainly: Test 11 field trial, preemergence. Type of data set: in vivo, Cenchrus echinatus. The arrangement: scale not given here. To be noted: atrazine 1500 or metolachlor 2500 g a.i./ha alone.
Text: as §1, §2

For data set [9], the system named is arrowleaf sida (SIDRH). Kind of data set: Test 11 field trial, preemergence. Type of data set: in vivo, Sida rhombifolia.
Text: as §1, §2

For data set [10], the system named is tropical spiderwort (COMBE). Kind of data set: Test 11 field trial, preemergence. Type of data set: in vivo, Commelina benghalensis. The arrangement: scale not given here. To be noted: atrazine 1500 or metolachlor 2500 g a.i./ha alone.
Text: as §1, §2

In data set [11] the test system is velvetleaf (ABUTH). Kind of data set: Test 15 greenhouse, postemergence. The note with it: 12 DAA.
[12] abbreviates: 16 DAA, atrazine 1500 or metolachlor 2500 g a.i./ha alone.
Setting [13] is: 30 DAA, atrazine 1500 or metolachlor 2500 g a.i./ha alone.
Setting [14] is: 44 DAA, 2500 g a.i./ha, scale 0 to 100.
Setting [15] is: 62 DAA, 2500 g a.i./ha, scale 0 to 100.
Setting [16] is: 91 DAA, 2500 g a.i./ha, scale 0 to 100.

In the case of `CCc1cccc(C)c1N(C(=O)CCl)C(C)COC` (stereo not drawn) [Metolachlor], the “ZEAMI Obs” value in [1] (16 DAA) is 30; in [1] (30 DAA) it was 20; in [1] (44 DAA), 25; in data set [1] (62 DAA), 20; in [1] (91 DAA), 20. Also, the “IPOGF Obs” value in data set [2] (setting [12]) worked out at 70; in data set [2] (setting [13]), 60; in data set [2] (setting [14]), 40; in [2] (setting [15]), 40; in data set [2] (setting [16]) it was 40. Besides, the “BRAPL Obs” value in data set [3] (16 DAA) stood at 97; in data set [3] (30 DAA) it was 90; in [3] (44 DAA) it was 90; in data set [3] (62 DAA), 60; in data set [3] (91 DAA), 40. Moreover, the “BRADC Obs” value in [4] (16 DAA) turned out to be 97; in [4] (30 DAA), 95; in [4] (44 DAA) it was 90; in [4] (62 DAA), 60; in data set [4] (91 DAA) it was 40. The “BIDPI Obs” value in data set [5] (16 DAA) is on record as 40; in data set [5] (30 DAA), 40; in data set [5] (44 DAA) it was 40; in [5] (62 DAA), 0; in [5] (91 DAA), 0. Moreover, the “DIGHO Obs” value in data set [6] (16 DAA) was determined as 100; in [6] (30 DAA), 100; in data set [6] (44 DAA) it was 100; in [6] (62 DAA), 100; in [6] (91 DAA), 95. Besides, the “ELEIN Obs” value in data set [7] (setting [13]), in data set [7] (setting [14]) and in data set [7] (setting [15]) was 100 each time. In addition, the “CCHEC Obs” value came to 95 in [8] (16 DAA); 97 in data set [8] (30 DAA); 97 in data set [8] (44 DAA); 80 in [8] (62 DAA); 100 in data set [8] (91 DAA). The “SIDRH Obs” value in [9] (setting [12]) was 90; in [9] (setting [13]), 80; in [9] (setting [14]), 60; in [9] (setting [15]), 70; in [9] (setting [16]), 90. For the same molecule, the “COMBE Obs” value in data set [10] (16 DAA), in data set [10] (30 DAA), in data set [10] (44 DAA), in [10] (62 DAA) and in [10] (91 DAA) was 100 throughout.

On to `CCOc1cc(Oc2ccc(C(F)(F)F)cc2Cl)ccc1[N+](=O)[O-]` [Oxyfluorfen], for which the “Obs response, scale 0 to 100” value in data set [11] (15 g a.i./ha) is 43; in [11] (30 g a.i./ha), 67; in data set [11] (60 g a.i./ha), 81.

On to `O=C1[C@H]2C[C@H](F)CN2C(=O)N1c1cc(NS(=O)(=O)CCl)c(Cl)cc1F` [Profluazol], for which the “Obs response, scale 0 to 100” value in [11] (2 g a.i./ha) amounted to 91; in [11] (8 g a.i./ha), 100; in [11] (15 g a.i./ha) it was 100.
